Source: patent publication US8822413B2, “Bifunctional hormone having alpha-MSH activity and natriuretic peptide activity and uses thereof” (Theratechnologies Inc., priority 2007, dated 2014)
Bridge positions count the residues as written; N and C are the ends. Square brackets hold non-standard residues; d marks the D form. Peptide text beside a SMILES is read from it.

Experiments:
Sprague-Dawley (SD) rats = experiment: Effect on mean arterial pressure (MAP) of anesthetized rat, iv bolus and iv infusion; assay type: in vivo
ANP receptor = molecular target: T1, ANP receptor (Sus scrofa, UniProt F1SFW3); experiment: cGMP production in ANP receptor-expressing LLC-PK1 cells; assay type: cell-based; conditions: 30 min stimulation, 10^-6M through 10^-12M, NR = No response detected
T1 construct: ANP receptor-expressing LLC-PK1 cells; endogenous in cells; host or cells: LLC-PK1 cells
T1 sequence (F1SFW3 29-1057): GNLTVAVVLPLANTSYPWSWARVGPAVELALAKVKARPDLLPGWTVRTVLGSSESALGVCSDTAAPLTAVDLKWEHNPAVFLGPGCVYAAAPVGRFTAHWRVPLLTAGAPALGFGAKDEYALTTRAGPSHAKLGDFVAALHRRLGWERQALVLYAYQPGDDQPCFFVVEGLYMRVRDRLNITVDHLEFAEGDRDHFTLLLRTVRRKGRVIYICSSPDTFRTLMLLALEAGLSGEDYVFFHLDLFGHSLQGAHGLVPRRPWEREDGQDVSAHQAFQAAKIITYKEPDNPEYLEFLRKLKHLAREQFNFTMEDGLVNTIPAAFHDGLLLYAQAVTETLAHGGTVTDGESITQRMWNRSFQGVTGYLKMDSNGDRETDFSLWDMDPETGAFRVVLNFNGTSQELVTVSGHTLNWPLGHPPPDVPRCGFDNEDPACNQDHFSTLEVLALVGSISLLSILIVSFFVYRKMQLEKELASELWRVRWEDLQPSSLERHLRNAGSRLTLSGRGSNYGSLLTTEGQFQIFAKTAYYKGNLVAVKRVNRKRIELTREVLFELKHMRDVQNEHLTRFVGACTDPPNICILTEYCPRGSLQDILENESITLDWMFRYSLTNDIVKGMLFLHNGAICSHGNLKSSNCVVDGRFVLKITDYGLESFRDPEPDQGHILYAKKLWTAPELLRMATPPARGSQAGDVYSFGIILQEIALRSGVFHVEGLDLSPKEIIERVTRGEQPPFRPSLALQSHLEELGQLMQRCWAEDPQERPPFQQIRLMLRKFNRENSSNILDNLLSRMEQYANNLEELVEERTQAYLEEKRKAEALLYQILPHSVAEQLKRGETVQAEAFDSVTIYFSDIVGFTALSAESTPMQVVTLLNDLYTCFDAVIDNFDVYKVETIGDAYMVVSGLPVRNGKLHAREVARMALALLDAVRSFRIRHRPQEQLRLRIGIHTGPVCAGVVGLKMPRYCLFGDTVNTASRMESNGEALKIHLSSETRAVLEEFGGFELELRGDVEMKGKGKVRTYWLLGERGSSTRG
Procedure: The bifunctional hormone was tested on ANP receptor-expressing LLC-PK1 cells and on MCR1 receptor-expressing B16-F1 cells. Both cell types were cultured 24 hours before the stimulation, in 96-well plates, at a concentration of 1.0×10^5 cells/ml. Before stimulation, cells were starved 2 hours in DPBS only and incubated 10 min in assay buffer (DPBS containing 20 mM HEPES, 0.1% BSA and 500 μM IBMX). The dose response curve of the bifunctional hormone was done for 30 minutes with concentrations of 10^−6M through 10^−12M. Supernatant was collected and cAMP (B16-F1) or cGMP (LLC-PK1) was measured with a radiolabeled kit from GE Healthcare Company.

CD11b/c, KIM-1 and IL-1β = experiment: Western blot of inflammatory and tubular injury markers in kidneys after renal ischemia; assay type: in vivo, rat; conditions: 15 μg/kg/h for 24 h, renal clamping 30 min, FIG. 6
Procedure: Bifunctional hormone #33 was infused at an infusion rate of 15 μg/kg/h for 24 h using Alzet™ minipumps. The proteins were identified with specific antibodies. (A) Western blot. (B) Histograms showing the relative abundance of the markers.
Renal ischemia elicits increased expression of inflammatory markers such as IL-1, IL-18, Tumor Necrosis Factor alpha (TNF-α) and CD11b (neutrophil marker; evidence of neutrophil infiltration of the tissue) as well as tubular epithelial markers such as KIM-1, NGAL and NAG. There is considerable interest in these markers since these markers are expressed earlier than the observed rise in serum creatinine levels. Therefore, diagnosis of acute kidney injury based on the markers allows for earlier treatment of the patients which may produce better outcomes in terms of dialysis need and mortality. The effect of the bifunctional hormone #33 on the expression of inflammatory and tubular injury markers was assessed using the animal model described in Example 5.
Preparation of dosing solutions. Peptide #33 was infused for 24 h at an infusion rate of 15 μg/Kg/h using Alzet™ minipumps.
Western blotting. Fresh kidneys were rapidly dissected and homogenized with a tissue homogenizer in ice cold lysis buffer: 20 mM Tris, 135 mM NaCl, 1% NP-40™, 0.1% SDS, 10% glycerol containing Complete-Mini Protease Inhibitor Cocktail™ (Roche). Following a 15-min incubation on ice, samples were centrifuged at 13,000 rpm for 5 min at 4° C. and the supernatants containing solubilized protein extracts were collected. Protein samples (40 ug protein) were resolved on 10% SDS polyacrylamide gel electrophoresis and transferred to PVDF membranes (Amersham, Pharmacia). Non-specific binding was eliminated by incubating membranes for 1 h at room temperature in a solution of 5% non-fat milk in TBST (10 mM Tris, 150 mM NaCl, 0.2% Tween-20). […]

CC[C@H](C)[C@@H]1NC(=O)[C@H](CCCNC(=N)N)NC(=O)[C@H](CC(=O)O)NC(=O)[C@H](CCSC)NC(=O)[C@H](CCCNC(=N)N)NC(=O)CNC(=O)CNC(=O)[C@H](Cc2ccccc2)NC(=O)[C@@H](NC(=O)[C@H](CCSC)NC(=O)[C@@H]2CCCN2C(=O)[C@H](CCCCN)NC(=O)CNC(=O)[C@H](Cc2c[nH]c3ccccc23)NC(=O)[C@H](CCCNC(=N)N)NC(=O)[C@@H](Cc2ccccc2)NC(=O)[C@H](Cc2c[nH]cn2)NC(C)=O)CSSC[C@@H](C(=O)N[C@@H](CC(N)=O)C(=O)N[C@@H](CO)C(=O)N[C@@H](Cc2ccccc2)C(=O)N[C@@H](CCCNC(=N)N)C(=O)N[C@@H](Cc2ccc(O)cc2)C(N)=O)NC(=O)CNC(=O)[C@H](CC(C)C)NC(=O)CNC(=O)[C@H](CO)NC(=O)[C@H](CCC(N)=O)NC(=O)[C@H](C)NC(=O)CNC1=O [SEQ ID NO: 33, Ac-H-f-R-W-G-K-P-M-[C-F-G-G-R-M-D-R-I-G-A-Q-S-G-L-G-C]-N-S-F-R-Y-NH2] (Ac-H[dF]RWGKPMCFGGRMDRIGAQSGLGCNSFRY-NH2; disulfide 9-25)
effect on MAP of continuous intravenous infusion (Sprague-Dawley (SD) rats; 30 μg/kg/h iv infusion, MAP recorded over an hour, FIG. 1B): well tolerated | bolus iv dose tolerated (MAP) (Sprague-Dawley (SD) rats; anesthetized SD rat, incremental iv bolus doses, FIG. 1A): up to 20 μg/kg | EC50 (ANP receptor): 69 nM | expression of CD11b/c (neutrophil marker) in kidney (CD11b/c, KIM-1 and IL-1β): reduced the expression | expression of IL-1β (inflammatory cytokine) in kidney (CD11b/c, KIM-1 and IL-1β): reduced the expression | expression of KIM-1 (tubular injury marker) in kidney (CD11b/c, KIM-1 and IL-1β): reduced the expression
